Laboratory results published in patent US6015820A, “4-Aryl-thio-pyridin-2(1H)-ones, medicines containing them and their uses in the treatment of illnesses linked to HIV” (priority 1995, dated 2000).

Experiments:
[1] = test system: HIV-2 D194; test: anti-HIV-2 activity, HIV-2 D194/PBMC; assay type: cell-based; settings: Human immunodeficiency virus 2, Table 4
Method: The virus production was measured by quantifying the activity of the inverse transcriptase associated with viral particles released into the culture supernatant. In short, cells were infected with 100 TCID50 for 30 minutes; after adsorption of the virus, unbound particles were removed by two washings and the cells were cultivated in the presence of different concentrations of the compounds tested for 5 days before determining the viral production. The concentration inhibiting 50% of the viral multiplication (IC50) came from the computer plot of the median effect of the dose effect results (Chou et al. Elsevier Science Publishers, Cambridge U.K. (1985), 19-28).
Thirty two compounds according to the invention were studied for their anti-HIV-1 biological activity. […] This compound was then tested with other colonies and other cell lines (Table 4).

[2] = target: inverse transcriptase of HIV-1 (HIV-1 M:B_ARV2/SF2, UniProt P03369); test: enzymatic kinetic analysis of IT inhibition (Lineweaver-Burk); assay type: biochemical
Method: FIG. 12 is a double-reciprocal (Lineweaver-Burk) representation of the inhibition of the inverse transcriptase of HIV-1 by compound 7c with the poly C-oligo dG as a matrix-primer couple and dGPT as substrate.
FIG. 13 is a double-reciprocal representation, similar to […], in which the poly A-oligo dT is used as a matrix-primer couple and dTTP as substrate.
(§1) Incubation was carried out at 37° C. for 10 minutes in the presence of various matrix-primers.
(§2) a) Poly C-oligo dG: the reaction mixture contained a final volume of 0.05 ml, Tris-HCl 50 mM pH 8.0, MgCl2 5 mM, dithiothreitol 4 mM, 0.48 A260 /ml of poly C-oligo dG (5:1), 1.0 μCi of [^3 H]dGTP (28 Ci/mmole), dGTP 2 μM, KCl 80 mM, 1 μg of bovine serum albumin and IT 20-50 nM.
(§3) b) Poly A-oligo dT: the same conditions as in a), except that 0.48 A260 /ml of poly A-oligo dT (5:1), 0.5 μCi of [^3 H]dTTP (46 Ci/mmole), dTTP 20 μM were used.
(§4) The reactions were stopped by adding in the cold 1 ml of 10% trichloroacetic acid plus sodium pyrophosphate 0.1 M. The precipitates were filtered through nitrocellulose membranes, washed with 2% trichloroacetic acid, dried and counted in a PPO/POPOP/toluene scintillation mixture.

[3] = target: T1, endogenous IT of isolated virion (Human immunodeficiency virus type 1 group M subtype B, UniProt P03367); test: inhibition of the endogenous IT on the isolated virion; assay type: biochemical; settings: for IT activity in cpm: Table 7, 10 μM
T1 construct: endogenous in cells; host or cells: isolated HIV-1 virions
Method: After having been incubated with the various inhibitors, the viral supernatants (200 μl) were deposited in the filtering part of a VectaSpin tube (WHATMAN) fitted with an ANAPORE membrane of porosity 0.02 μm. For 10 minutes they were subjected to centrifugation, the acceleration of which reached 6000 g at the filtering membrane. The viral residuums thereby obtained (10-15 μl ) were washed 3 times under the same conditions with 500 μl of RPMI then restored to their initial volumes with RPMI containing 10% of CFS.

[4] = target: T2, IT of recombinant HIV-1 (Human immunodeficiency virus type 1 group M subtype B, UniProt P03369); test: inhibition of the inverse transcriptase of recombinant HIV-1; assay type: biochemical
T2 construct: purify the IT enzyme of the recombinant HIV-1; made in house; host or cells: yeast cells transformed with the pAB 24/IT-4 vector
Method: Yeast cells transformed with the pAB 24/IT-4 vector were used to purify the IT enzyme of the recombinant HIV-1 as described by Sallafranque-Andreola et al. (1989 Eur. J. Biochem. 184, 364-374).
as §1, §2, §3, §4
All the compounds were dissolved in dimethyl#sulphoxide (DMSO). The test samples were prepared in the presence of the same final concentration of DMSO. IC50 is the concentration required to inhibit the activity of the IT of the recombinant HIV-1 by 50%.

[5] = test system: PBMC; test: cytotoxicity on PBMC; assay type: cell-based; settings: Table 4, 7200 min
Method: (§5) In parallel experiments, the cytotoxicity of the molecules was measured on non-infected cells, after an incubation of 5 days in the presence of these molecules, by using a […] titration (MTT test) based on the ability of the mitochondrial dehydrogenases of the living cells to reduce 3-(4,5-dimethylthiazol-2-yl)-2,5-diphenyltetrazolium bromide in formazan (Mosmann et al. J. Immunol. Methods ([…]), 65, 55-63). The concentration cytotoxic at 50% (CC50) is the concentration at which the DO540 has been reduced to half and is calculated by using the program mentioned above.

[6] = cytotoxicity on PBMC; assay type: cell-based; settings: human; Table 4; line HIV-1 IIIB/PBMC
Method: as §5

For `CCc1c(C)[nH]c(=O)c([N+](=O)[O-])c1Sc1cc(C)cc(C)c1` [Compound 7c, 5-ethyl-6-methyl-3-nitro-4-(3', 5'-dimethylphenyl)thio-pyridin-2(1H)-one], the IC50 [1] was > 10 µM, the type of inhibition ([2]; as regards dGTP substrate, poly C-oligo dG matrix-primer (FIG. 12)) was “non-competitive” and the type of inhibition ([2]; poly A-oligo dT matrix-primer, dTTP substrate (FIG. 13)) was “competitive”. For the same compound, the “IT activity in cpm” value ([3]; first (unheaded) value column, isolated virion control 813) was 32 cpm, the “IT activity in cpm” value ([3]; second (unheaded) value column, isolated virion control 809) was 852 cpm and the “penetration of envelope and capsid and blocking of IT” value ([3]; isolated virions incubated 3 hours) was “appeared to penetrate the envelope and the viral capsid to fix itself onto the IT and to block its activity”. The IC50 [4] was 0.03 µM, the “effect on activity of the IT of HIV-1 in HIV-1/HIV-2 comparison” value ([4]; FIG. 9) was “well inhibited” and the “IT inhibition according to matrix-primer couple” value ([4]; poly C-oligo dG compared with poly A-oligo dT (FIG. 9)) was “Better inhibition was obtained in the presence of poly C-oligo dG compared with poly A-oligo dT”. For the same compound, the CC50 ([5]; line HIV-1 6 type D/PBMC) was > 10 µM, the CC50 ([5]; line HIV-1 4200 type E/PBMC) was > 10 µM and the CC50 ([5]; line HIV-2 D194/PBMC) was > 10 µM. For the same compound, the CC50 at 120 h [6] was > 10 µM.
